According to US20250032429A1, “2-FLUORODESCHLO[…] TREATMENT OF DEPRESSION, INCLUDING TREATMENT-RESISTANT DEPRESSION” (CLEARMIND MEDICINE INC., priority 2021, published 2025):
Structures can show the parent of a compound that is named as a salt.

Key:
[1] = test system: patients with major depressive disorders; conditions: cited from earlier work
[2] = Dose-response of arylcyclohexamines: intensity of experience after nasal spray, Shulgin + rating; assay type: in vivo; conditions: for Ketamine effect / 2-DCK effect / 2-FDCK effect / OPCE effect: nasal spray, Shulgin + scale as 1-4; for dose-response curve (shape): administered in the same way, FIG. 1, FIG. 2; for dosage effective as lower threshold: initial experimentation, logarithmic dosing
Description: For safety reasons, when exploring novel psychoactives—the logarithmic scale is adopted for initial dosing to get an idea of whether or not a compound is active and if so, at what dosage ranges.
Following this initial experimentation with OPCE, 2-DCK, and 2-FDCK (Ketamine was later added to the study for reference) it was clear that dosages of 3 mg, 15 mg, and 30 mg, correspondingly, were effective as lower thresholds for further exploration. It was decided to multiply the lower threshold doses by 2, 3 & 4 to explore the effects of higher doses on the mind. Every several days a portion of one of the compounds was measured out on an Ohaus Scout balance scale and prepared for administration via nasal spray using a refillable nasal spray bottle.
The goals were to score a “+” ranking for effect and keep an open mind to look out for any other noteworthy observations. The Shulgin “+” based rating system (SHULGIN, A. T., & SHULGIN, A. (1991). Pihkal: a chemical love story. Berkeley, CA, Transform Press, page 964) for psychedelic experiences was chosen for a yearlong exploration of these various arylcylohexamines. Although the target family of molecules and the type of experience were different from the rating systems' original design, the scale's simplicity yields itself particularly well to this kind of exploration for a few reasons: • (1) The experience rendered by novel psychedelics is often ineffable.
It was therefore desirable to use the simple +, ++, +++, ++++ as 1, 2, 3, 4 to rate intensity of experience without seeking an objective measure for intensity.
When the dosages are adjusted to units that make all dose/response curves fit on the same graph then running a spline through the data points gives us curves that resemble, qualitatively, the curves appearing in FIG. 2.

[3] = test system: C57BL/6N mice; experiment: Mouse forced swim test (FST), two-day paradigm; assay type: in vivo; conditions: i.p. in saline 30 minutes prior to FST; day 2, final 4 minutes of 6 minute session; vs vehicle
Description: Male 10 week C57BL/6N mice (Taconic) are acclimated to a holding facility one week prior to testing. A two-day FST paradigm is employed, in which mice are exposed to a 10 minute test in absence of drug, and are tested the following day in presence of drug in a 6 minute test. 2-FDCK is administered intraperitoneally (i.p.) in saline vehicle 30 minutes prior to FST. All animals are drug naïve and not previously exposed to behavioral testing.
Male C57BL6N/Tac mice 10 weeks of age are housed four mice per cage under a 12:12 h light/dark cycle and are allowed to acclimate for approximately one week prior to behavioral procedures. Food and water is provided ad libitum. All procedures followed the National Institutes of Health Guide for the Care and Use of Laboratory Animals.
2-FDCK is dissolved in a saline vehicle (0.9% sodium chloride). For the 2-FDCK dose response experiment, mice receive vehicle or varying doses of 2-FDCK i.p. 30 minutes prior to behavior testing.
Mice are tested in a two day forced swim test (FST) procedure. […] On day 2, mice receive i.p. injections 30 minutes prior to being placed in a cylinder for a 6 minute session and immobility time is scored during the final 4 minutes.

[4] = test system: N-methyl-D-aspartate (NMDA) receptor; conditions: S-enantiomer compared with ketamine; cited from earlier work

CNC1(c2ccccc2Cl)CCCCC1=O (racemic) [Ketamine]
onset of antidepressant effect [1]: rapid antidepressant effect, acting within two hours | Ketamine effect ([2]; dosage 28 (mg)): 1 | Ketamine effect ([2]; dosage 31 (mg)): 1 | Ketamine effect ([2]; dosage 32 (mg)): 1 | Ketamine effect ([2]; dosage 55 (mg)): 2 | Ketamine effect ([2]; dosage 58 (mg)): 2 | Ketamine effect ([2]; dosage 59 (mg)): 2 | Ketamine effect ([2]; dosage 62 (mg)): 2 | Ketamine effect ([2]; dosage 89 (mg)): 3 | Ketamine effect ([2]; dosage 90 (mg)): 4 | Ketamine effect ([2]; dosage 92 (mg)): 4 | Ketamine effect ([2]; dosage 114 (mg)): 4 | Ketamine effect ([2]; dosage 120 (mg)): 4 | Ketamine effect ([2]; dosage 122 (mg)): 4

CNC1(c2ccccc2)CCCCC1=O (centres unmarked) [2-DCK]
dose-response curve (shape) [2]: dose-response curves that start rising sharply at low doses | 2-DCK effect ([2]; dosage 15 (mg)): 1 | 2-DCK effect ([2]; dosage 16 (mg)): 1 | 2-DCK effect ([2]; dosage 17 (mg)): 1 | 2-DCK effect ([2]; dosage 18 (mg)): 1 | 2-DCK effect ([2]; dosage 28 (mg)): 3 | 2-DCK effect ([2]; dosage 29 (mg)): 3 | 2-DCK effect ([2]; dosage 31 (mg)): 3 | 2-DCK effect ([2]; dosage 33 (mg)): 3 | 2-DCK effect ([2]; dosage 42 (mg)): 4 | 2-DCK effect ([2]; dosage 43 (mg)): 4 | 2-DCK effect ([2]; dosage 44 (mg)): 4 | 2-DCK effect ([2]; dosage 45 (mg)): 4 | 2-DCK effect ([2]; dosage 46 (mg)): 4 | 2-DCK effect ([2]; dosage 57 (mg)): 4 | 2-DCK effect ([2]; dosage 58 (mg)): 4 | 2-DCK effect ([2]; dosage 61 (mg)): 4 | 2-DCK effect ([2]; dosage 62 (mg)): 4 | dosage effective as lower threshold [2]: 15 mg

CNC1(c2ccccc2F)CCCCC1=O (centres unmarked) [2-FDCK, 2-(2-fluorophenyl)-2-(methylamino)cyclohexan-1-one]
dose-response curve (shape) [2]: flatter than the dose-response curve for Ketamine | 2-FDCK effect ([2]; dosage 28 (mg)): 1 | 2-FDCK effect ([2]; dosage 29 (mg)): 1 | 2-FDCK effect ([2]; dosage 30 (mg)): 1 | 2-FDCK effect ([2]; dosage 31 (mg)): 1 | 2-FDCK effect ([2]; dosage 32 (mg)): 1 | 2-FDCK effect ([2]; dosage 33 (mg)): 1 | 2-FDCK effect ([2]; dosage 35 (mg)): 1 | 2-FDCK effect ([2]; dosage 55 (mg)): 2 | 2-FDCK effect ([2]; dosage 57 (mg)): 2 | 2-FDCK effect ([2]; dosage 58 (mg)): 2 | 2-FDCK effect ([2]; dosage 61 (mg)): 2 | 2-FDCK effect ([2]; dosage 62 (mg)): 2 | 2-FDCK effect ([2]; dosage 88 (mg)): 3 | 2-FDCK effect ([2]; dosage 90 (mg)): 3 | 2-FDCK effect ([2]; dosage 91 (mg)): 3 | 2-FDCK effect ([2]; dosage 114 (mg)): 4 | 2-FDCK effect ([2]; dosage 116 (mg)): 4 | 2-FDCK effect ([2]; dosage 122 (mg)): 4 | 2-FDCK effect ([2]; dosage 124 (mg)): 4 | dose response curve (shape) compared to S-ketamine ([2]; in treating patients with depression, specifically TRD): flatter dose response curve compared to S-ketamine | dosage effective as lower threshold [2]: 30 mg | immobility time [3]: shorter immobility times relative to mice receiving vehicle alone

CCNC1(c2ccccc2)CCCCC1=O (centres unmarked) [OPCE]
dose-response curve (shape) [2]: dose-response curves that start rising sharply at low doses | OPCE effect ([2]; dosage 3 (mg)): 1 | OPCE effect ([2]; dosage 4 (mg)): 1 | OPCE effect ([2]; dosage 6 (mg)): 1 | OPCE effect ([2]; dosage 9 (mg)): 2 | OPCE effect ([2]; dosage 11 (mg)): 4 | OPCE effect ([2]; dosage 12 (mg)): 4 | dosage effective as lower threshold [2]: 3 mg

CN[C@]1(c2ccccc2Cl)CCCCC1=O [S-ketamine, (S)-2-(2-chlorophenyl)-2-(methylamino)cyclohexanone hydrochloride]
potency or affinity for the NMDA receptor [4]: higher potency or affinity for the NMDA reception
